From patent US20040146554A1, “Method for the administration of acid-labile drugs” (priority 2000, published 2004)

Key:
gastric acid secretion = conditions: intact granules suspended in orange juice, via gastrostomy tube; cited from earlier work
[1] = Suspending PPI capsule granules or tablets in calcium carbonate suspension; type: physicochemical; conditions: granular contents of capsule (20 mg omeprazole, 30 mg lansoprazole) in 10 cc of 4 gm % or 8 gm % calcium carbonate suspension
Experimental: More specifically, suspensions of calcium carbonate were produced by dissolving either 400 mg or 800 mg of calcium carbonate in 10 cc of water, resulting in suspensions of 4 gm % and 8 gm %, respectively. In separate 10 cc preparations of either strength of the calcium carbonate suspension, the granular contents of a 20 mg omeprazole capsule, a 30 mg lansoprazole capsule, a 20 mg rabeprazole tablet, and a 40 mg pantoprazole tablet were suspended. In approximately 30 minutes, the granules of the omeprazole and lansoprazole capsules were in complete suspension. In approximately two hours, the contents of the tablets of rabeprazole and pantoprazole had completely suspended.

time until granules were in complete suspension [1]: approximately 30 minutes
SMILES: Cc1c(OCC(F)(F)F)ccnc1C[S+]([O-])c1nc2ccccc2[nH]1 (centres unmarked) [lansoprazole]
suppression of gastric acid secretion (gastric acid secretion): produced the desired effect of suppressing gastric acid secretion
